Results on 24 compounds are retold here after patent US20250332173A1, “COMPOUNDS AND METHODS FOR MODULATING NUCLEIC ACID SPLICING” (REMIX THERAPEUTICS INC., priority 2021, published 2025).

Assay [1] relates to MYB. Put plainly: HiBiT protein abundance assay, MYB HiBiT K562 cell line. The format is cell-based, human. Conditions: HiBiT K562 cell line, 24 hours, top dose 10 μM; read-out: Effect on protein abundance, MYB (IC50 category). How it is done: (§1) Compounds described herein were used to screen for effects on quantitative protein abundance using a HiBit assay system (Promega). Quantitative protein abundance was determined by measuring the protein levels of HiBit-tagged protein targets expressed in cell culture via luminescence using the Nano-Glo HiBiT Lytic Detection System, which uses a split complementation assay format to reconstitute NanoBiT enzyme to generate a luminescent signal. A protein abundance assay was developed such that endogenous protein targets could be modified with the HiBiT peptide tag and their abundance could be assessed after compound treatment. Briefly, K562 cell lines containing a HiBiT-modification were treated with various compounds described herein (e.g., compounds of Formulas (I), (II), (III), (IV), (V), (VI), (VII), (VIII), or (IX)). After treatment for 24 hours, the protein abundance of a specific target was determined by measuring luminescence.
(§2) • Promega Nano-Glo HiBiT Lytic Detection System (cat #N3030) • Corning 384-well TC-treated microplates (cat #3570) • Synthego Engineered Cells Knock-In Clones
(§3) Cells were maintained in IMDM with 10% FBS. Before the assay, cells were diluted with […] growth media (IMDM+[…] media) and were seeded in a 384-well plate at a density of 10,000 cells/well (for each cell line listed in Table 5). Each compound was prepared as a 10-point 3-fold serial dilution in DMSO with the top dose at a final concentration of 10 μM in the well. Unmodified K562 cells were added at the previously specified density with DMSO to serve as an assay baseline and positive control (PC) and DMSO only with the respective modified cell lines was added to the negative control (NC) columns. Final DMSO concentration was kept at or below 0.25%. Treated cell plates were placed in an incubator at 37° C. with […] for 24 hours. After 24 hours, 25 μL of Complete HiBit Lytic reagent was added to each well at room temperature (e.g. one plate requiring 10 mL Lytic Buffer, 100 μL LgBiT Protein, 200 μL Lytic Substrate), shaken for 5 minutes at 600 RPM, then left to sit for 10 minutes for signal to stabilize before reading on a Spark Cyto plate reader (Tecan) with a 500 ms measurement time.
(§4) To determine compound effects on protein abundance of each target in Table 5, the percent response for each respective cell line was calculated at each compound concentration as follows:
(§5) For the normalized response at each concentration, a four-parameter logistical regression was fit to the data and the response was interpolated at the […] to determine a concentration for protein abundance at […] the untreated control.

For assay [2], the system named is HTT. Put plainly: HiBiT protein abundance assay, HTT HiBiT K562 cell line. Conditions: HiBiT K562 cell line, 24 hours, top dose 10 μM; read-out: Effect on protein abundance, HTT (IC50 category). In kind it is cell-based, human. How it is done:
as §1, §2, §3, §4, §5

The test system of assay [3] is K562 (human chronic myelogenous leukemia) cells. Put plainly: Cell Titer Glo 2.0 cell viability assay. In kind it is cell-based. Conditions: Homo sapiens, K562, 72 h, K562 cells, 72 hours, Cell Titer Glo 2.0; read-out: K562 GI50.
Assay [4] deals with Target C. The assay is described as follows: HiBiT protein abundance assay, Target C (Promega Nano-Glo HiBiT Lytic Detection System, knock-in K562 cell line). In kind it is cell-based, human. The settings on record: Homo sapiens, K562, 24 h, HiBiT K562 cell line, 24 hours, top dose 10 μM; read-out: Effect on protein abundance, Target C (IC50 category). How it is done: as §2, §3, §4, §5

Consider `Cc1cn2nc(-c3cc(O)c4c(=O)n([C@H]5CCNC6(CC6)C5)ncc4c3)cc(C)c2n1` [Compound 469], for which the IC50 in assay [1], in assay [2] and in assay [4] was less than 100 nM each time. In addition, the GI50 in assay [3] is less than 100 nM.
Turning to `Cc1cn2nc(-c3cc(O)c4c(=O)n([C@@H]5CCNC6(CC6)C5)ncc4c3)cc(C)c2n1` [Compound 470], the values for the IC50 in assay [1], in assay [2] and in assay [4] were 100 to 1000 nM, less than 100 nM and less than 100 nM, respectively. Further, in assay [3], the GI50 was in the range of 100 to 1000 nM.
For the compound `Cc1cn2nc(-c3cc(F)c4c(=O)n(C5CCNCC5)cnc4c3)cc(C#N)c2n1` [Compound 501], the IC50 in assay [1], in assay [2] and in assay [4] was less than 100 nM each time. The GI50 in assay [3] was in the range of 100 to 1000 nM.
In the case of `Cc1cn2c(n1)CCC(c1cc(F)c3c(=O)n(C4CCNCC4)cnc3c1)C2` (stereo not drawn) [Compound 502, 5-fluoro-7-{2-methyl-5H,6H,7H,8H-imidazo[1,2-a]pyridin-6-yl}-3-(piperidin-4-yl)quinazolin-4-one], the IC50 in assay [1], in assay [2] and in assay [4] was greater than 10000 nM each time. For the same compound, in assay [3], the GI50 is greater than 10000 nM.
In the case of `Cc1cn2nc(-c3cc4ncn(C5CCNCC5)c(=O)c4cc3O)cc(C)c2n1` [Compound 503, 7-{2,8-dimethylimidazo[1,2-b]pyridazin-6-yl}-6-hydroxy-3-(piperidin-4-yl)quinazolin-4-one], the IC50 was less than 100 nM in assay [1], less than 100 nM in assay [2] and 100 to 1000 nM in assay [4]. In addition, the GI50 in assay [3] was in the range of 1000 to 10000 nM.
On to `COc1cc2c(=O)n(C3CCNCC3)cnc2cc1-c1cc(C)c2nc(C)cn2n1` [Compound 504, 7-{2,8-dimethylimidazo[1,2-b]pyridazin-6-yl}-6-methoxy-3-(piperidin-4-yl)quinazolin-4-one], for which the IC50 in assay [1], in assay [2] and in assay [4] was greater than 10000 nM throughout. For the same compound, the GI50 in assay [3] was greater than 10000 nM.
For the compound `Cc1c(O)c(-c2ccc3c(=O)n(C4CCNCC4)cnc3n2)cc2cn(C)nc12` [Compound 505, 7-(6-hydroxy-2,7-dimethyl-2H-indazol-5-yl)-3-(piperidin-4-yl)pyrido[2,3-d]pyrimidin-4(3H)-one], the IC50 in assay [1], in assay [2] and in assay [4] was 100 to 1000 nM throughout. In addition, in assay [3], the GI50 is 100 to 1000 nM.
Turning to `COc1c(-c2ccc3c(=O)n(C4CCNCC4)cnc3n2)cc2cn(C)nc2c1C` [Compound 506, 7-(6-methoxy-2,7-dimethylindazol-5-yl)-3-(piperidin-4-yl)pyrido[2,3-d]pyrimidin-4-one], the IC50 in assay [1], in assay [2] and in assay [4] was greater than 10000 nM throughout. In assay [3], the GI50 was greater than 10000 nM.
As for `Cc1cn2cc(-c3cc(O)c4c(=O)n(C5CCNC5)cnc4c3)cc(C#N)c2n1` (stereo not drawn) [Compound 507, 6-[5-hydroxy-4-oxo-3-(pyrrolidin-3-yl)quinazolin-7-yl]-2-methylimidazo[1,2-a]pyridine-8-carbonitrile; trifluoroacetic acid], the IC50 in assay [1] was 1000 to 10000 nM; in assay [2], greater than 10000 nM; in assay [4] it was 1000 to 10000 nM. For the same compound, the GI50 in assay [3] fell in the range of 1000 to 10000 nM.
`Cc1nc2c(o1)CN(c1cc(F)c3c(=O)n(C4CCNCC4)cnc3c1)CC2` [Compound 508, 5-fluoro-7-{2-methyl-4H,6H,7H-[1,3]oxazolo[5,4-c]pyridin-5-yl}-3-(piperidin-4-yl)quinazolin-4-one; trifluoroacetic acid]: the figures for the IC50 in assay [1], in assay [2] and in assay [4] were 1000 to 10000 nM, greater than 10000 nM and greater than 10000 nM, respectively. Further, the GI50 in assay [3] was greater than 10000 nM.
Consider `Cn1cc2nc(-c3cc(O)c4c(=O)n(C5CCNC6(CC6)C5)ncc4c3)ccc2n1` (stereo not drawn) [Compound 562], for which the IC50 in assay [1], in assay [2] and in assay [4] was 100 to 1000 nM in each case. Further, in assay [3], the GI50 was in the range of 100 to 1000 nM.
Take `Cn1cc2nc(-c3cc(F)c4c(=O)n(C5CCNC6(CC6)C5)ncc4c3)ccc2n1` (stereo not drawn) [Compound 563]: the IC50 in assay [1], in assay [2] and in assay [4] was 100 to 1000 nM each time. Moreover, the GI50 in assay [3] was 100 to 1000 nM.
Turning to `Cc1nc2c(C)cc(-c3cc(O)c4c(=O)n(C5CCNC6(CC6)C5)ncc4c3)cc2o1` (stereo not drawn) [Compound 564], the IC50 in assay [1], in assay [2] and in assay [4] was 100 to 1000 nM throughout. Moreover, the GI50 in assay [3] was in the range of 100 to 1000 nM.
For the compound `Cc1cn2nc(-c3cc(F)c4c(=O)n(C5CCN(C)C6(CC6)C5)ncc4c3)cc(C)c2n1` (stereo not drawn) [Compound 565], the half-maximal inhibitory concentration (IC50) in assay [1], in assay [2] and in assay [4] was less than 100 nM throughout. Moreover, the GI50 in assay [3] lay within 100 to 1000 nM.
On to `Cc1cn2nc(-c3cc(N)c4c(=O)n(C5CCNCC5)ncc4c3)cc(C)c2n1` [Compound 566], for which the half-maximal inhibitory concentration (IC50) in assay [1], in assay [2] and in assay [4] was 100 to 1000 nM in each case. For the same compound, in assay [3], the 50% growth inhibitory concentration (GI50) fell in the range of 100 to 1000 nM.
In the case of `Cc1cn2nc(-c3ccc4c(=O)c(C5CCNCC5)cn(C)c4c3)cc(C)c2n1` [Compound 590], the values for the IC50 in assay [1], in assay [2] and in assay [4] were 100 to 1000 nM, 1000 to 10000 nM and 1000 to 10000 nM, respectively. Besides, the GI50 in assay [3] was in the range of 1000 to 10000 nM.
For the compound `Cc1cn2cc(-c3ccc4c(=O)c(C5CCNCC5)cn(C)c4c3)nc(C)c2n1` [Compound 591], the IC50 in assay [1] was 1000 to 10000 nM; in assay [2], greater than 10000 nM; in assay [4], greater than 10000 nM. Besides, the GI50 in assay [3] is 1000 to 10000 nM.
On to `Cc1cn2cc(-c3ncc4c(=O)n(C5CCNCC5)ccc4n3)cc(F)c2n1` [Compound 1213, 2-(8-fluoro-2-methylimidazo[1,2-a]pyridin-6-yl)-6-(piperidin-4-yl)pyrido[4,3-d]pyrimidin-5(6H)-one], for which the IC50 in assay [1], in assay [2] and in assay [4] was 100 to 1000 nM each time. Further, the GI50 in assay [3] was in the range of 100 to 1000 nM.
Regarding `COc1c(-c2cc3ccn(C4CCNCC4)c(=O)c3cn2)cc2cn(C)nc2c1C` [Compound 1218], the IC50 in assay [1], in assay [2] and in assay [4] was greater than 10000 nM in each case. The GI50 in assay [3] was greater than 10000 nM.
Consider `Cc1c(O)c(-c2ncc3c(=O)n(C4CCNCC4)ccc3n2)cc2cn(C)nc12` [Compound 1224], for which the IC50 in assay [1] is less than 100 nM; in assay [2], less than 100 nM; in assay [4] it was 100 to 1000 nM. The GI50 in assay [3] is less than 100 nM.
With `Cn1cc2cc(-c3ccc4c(=O)n(C5CCNCC5)ccc4n3)c(O)c(F)c2n1` [Compound 1226], the IC50 in assay [1], in assay [2] and in assay [4] was less than 100 nM in each case. In addition, the GI50 in assay [3] was less than 100 nM.
Turning to `Cc1cn2cc(-c3ccc4c(=O)n(C5CCNCC5)ccc4n3)cc(F)c2n1` [Compound 1230, 2-(8-fluoro-2-methylimidazo[1,2-a]pyridin-6-yl)-6-(piperidin-4-yl)-1,6-naphthyridin-5(6H)-one], the IC50 in assay [1] is less than 100 nM; in assay [2], less than 100 nM; in assay [4], 100 to 1000 nM. The GI50 in assay [3] was less than 100 nM.
In the case of `Cc1c(O)c(-c2ccc3c(=O)n(C4CCNCC4)ccc3n2)cc2cn(C)nc12` [Compound 1234], the IC50 in assay [1], in assay [2] and in assay [4] was less than 100 nM throughout. In addition, the GI50 in assay [3] was less than 100 nM.
For `Cc1nc2cc(O)c(-c3ccc4c(=O)n(C5CCNCC5)ccc4n3)cc2o1` [Compound 1237], the IC50 in assay [1], in assay [2] and in assay [4] was less than 100 nM in each case. The GI50 in assay [3] is less than 100 nM.
